Reference: patent publication US20240009213A1, “TREATMENT FOR VIRAL INFECTION” (priority 2020, published 2024)

Columns and labels:
[1] = tested on: influenza A/California/07/2009 (H1N1), influenza A/PR/8/1934 (H1N1), influenza A/Vietnam/1194/2004 (H5N1); test: microbe, parasite or virus in culture; assay type: cell-based, influenza A virus; conditions: for IC50: Influenza A virus, MDCK, 50 h
[2] = tested on: influenza A/PuertoRico/1934 (H1N1); test: Protection of mice against lethal influenza H1N1 challenge; assay type: in vivo, BALB/c mice; conditions: 5×LD50 influenza A/PuertoRico/1934 (H1N1) day 0; 25 mg/kg orally once daily day 1 to day 7
SARS-CoV-2 [3] = test: Protection of mice against lethal SARS-CoV-2 challenge; assay type: in vivo, F1 mice of BALB/c/C57BL6 mice; conditions: 5×LD50 SARS-CoV-2 day 0; 25 mg/kg orally once daily day 1 to day 7
SARS-CoV-2 [4] = assay type: cell-based

SMILES: CCc1cc2c(cc1N1CCC(N3CCOCC3)CC1)C(C)(C)c1[nH]c3cc(C#N)ccc3c1C2=O [alectinib, 9-ethyl-6,6-dimethyl-8-(4-morpholin-4-ylpiperidin-1-yl)-11-oxo-5H-benzo[b]carbazole-3-carbonitrile]
- IC50 [1]: 1000 to 4000 nM

SMILES: COc1cc(N2CCC(N3CCN(C)CC3)CC2)ccc1Nc1ncc(Cl)c(Nc2ccccc2P(C)(C)=O)n1 [brigatinib, 5-chloro-4-N-(2-dimethylphosphorylphenyl)-2-N-[2-methoxy-4-[4-(4-methylpiperazin-1-yl)piperidin-1-yl]phenyl]pyrimidine-2,4-diamine]
- survival of mice [2]: 12.5%
- IC50 [1]: 1000 to 4000 nM

SMILES: Cc1cc(Nc2ncc(Cl)c(Nc3ccccc3S(=O)(=O)C(C)C)n2)c(OC(C)C)cc1C1CCNCC1 [ceritinib, 5-chloro-2-N-(5-methyl-4-piperidin-4-yl-2-propan-2-yloxyphenyl)-4-N-(2-propan-2-ylsulfonylphenyl)pyrimidine-2,4-diamine]
- IC50 [1]: 100 to 1000 nM
- survival of mice (SARS-CoV-2 [3]): 29%

SMILES: C[C@@H](Oc1cc(-c2cnn(C3CCNCC3)c2)cnc1N)c1c(Cl)ccc(F)c1Cl [crizotinib, 3-[(1R)-1-(2,6-dichloro-3-fluorophenyl)ethoxy]-5-(1-piperidin-4-ylpyrazol-4-yl)pyridin-2-amine]
- survival of mice [2]: 38%
- IC50 [1]: 1000 to 4000 nM

SMILES: C[C@@H]1CN(C(=O)c2ccc(NC(=O)c3cc(O[C@H](C)c4c(Cl)ccc(F)c4Cl)c(N)nn3)cc2)C[C@H](C)N1 [ensartinib, 6-amino-5-[(1R)-1-(2,6-dichloro-3-fluorophenyl)ethoxy]-N-[4-[(3R,5S)-3,5-dimethylpiperazine-1-carbonyl]phenyl]pyridazine-3-carboxamide]
- IC50 [1]: 1000 to 4000 nM

SMILES: CN1CCN(c2ccc(C(=O)Nc3n[nH]c4ccc(Cc5cc(F)cc(F)c5)cc34)c(NC3CCOCC3)c2)CC1 [entrectinib, N-[5-[(3,5-difluorophenyl)methyl]-1H-indazol-3-yl]-4-(4-methylpiperazin-1-yl)-2-(oxan-4-ylamino)benzamide]
- IC50 [1]: 1000 to 4000 nM

SMILES: C[C@H]1Oc2cc(cnc2N)-c2c(nn(C)c2C#N)CN(C)C(=O)c2ccc(F)cc21 [lorlatinib]
- inhibition of SARS-CoV-2 (SARS-CoV-2 [4]): but not lorlatinib, inhibited SARS-CoV-2
- virus assembly/secretion (viral OD, viral titres) [1]: viral titres remain high for all doses tested
